Here are results for six compounds from patent EP4793275A1, “AT2R ANTAGONIST AND USE THEREOF” (Hubei Bio-Pharmaceutical Industrial Technological Institute …, priority 2023, dated 2025).

Each structure is given as a SMILES string.

Series [1] can be described thus: Pharmacokinetic test in rats. Type of series: in vivo. Particulars: rat; male SD rats, oral administration by gavage, 10 mg/kg, plasma. How it is done:
For the pharmacokinetic test of rats, 3 male SD rats (180 g to 240 g) were employed and fasted overnight. The rats were orally administered a dose of 10 mg/kg by gavage. Blood was collected before the administration, and at 15 minutes, 30 minutes, 1 hour, 2 hours, 4 hours, 6 hours, 8 hours, and 24 hours after the administration. The blood samples were centrifuged at 8,000 rpm and at 4°C for 6 minutes, and plasma was collected and stored at -20°C. The plasma at each time point was taken and mixed with 3 to 5 volumes of an acetonitrile solution containing an internal standard. The mixture was vortexed for 1 minute, and centrifuged at 13,000 rpm and at 4°C for 10 minutes. The supernatant was collected and mixed with 3 volumes of water. An appropriate amount of the mixture was taken for LC-MS/MS analysis. The main pharmacokinetic parameters were analyzed by a non-compartmental model using WinNonlin 7.0 software. [Table 2] Results of Pharmacokinetic Test in Rats

Series [2] has as its target T1, AT2R (Homo sapiens, UniProt P50052).
T1 construct: purchased Cisbio C1TT1AT2
T1 sequence (P50052 1-363): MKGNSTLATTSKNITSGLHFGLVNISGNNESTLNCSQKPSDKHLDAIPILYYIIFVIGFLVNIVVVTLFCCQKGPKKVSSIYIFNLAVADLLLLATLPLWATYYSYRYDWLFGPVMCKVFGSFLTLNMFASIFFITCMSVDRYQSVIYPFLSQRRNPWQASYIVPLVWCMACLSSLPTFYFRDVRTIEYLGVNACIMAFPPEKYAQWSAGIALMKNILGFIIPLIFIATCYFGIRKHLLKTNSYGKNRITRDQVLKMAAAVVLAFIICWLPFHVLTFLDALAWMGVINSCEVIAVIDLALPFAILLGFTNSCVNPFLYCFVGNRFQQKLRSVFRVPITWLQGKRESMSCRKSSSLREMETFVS
The series is described as follows: Binding assay of compounds to AT2R (Tag-lite HTRF ligand binding kit). The note with it: labeled cells, Tag-lite red fluorescent labeled ligand, 1 hour at room temperature. How it is done:
The assay was performed in accordance with the manufacturer instructions of Angiotensin AT2 Receptor Ligand Binding Assay Kit (#C1TT1AT2, Cisbio). First, a 10 mM compound stock solution was diluted in a gradient at a 5× dilution ratio (including 10 concentrations, each with two replicates). 160 nL of compounds at different concentrations was added to a 384-well plate. 40 µL of 1× TLB was added to each well, and the mixture was shaken at room temperature for 15 minutes. A 15 mL centrifuge tube added with 5 mL of 1×TLB was prepared in advance. The frozen labeled cells were thawed in a water bath at 37°C (for 1 to 2 minutes), and the thawed cells were quickly transferred to the above 15 mL centrifuge tube. The mixture was mixed well and centrifuged at 1,000 g at room temperature for 5 minutes. The supernatant was removed, and the cells were resuspended by adding 2.7 mL 1× TLB. A new 384-well plate was taken, and 10 µL of mixed cells were added into the corresponding wells according to the assay design. 5 µL of 4× compound solution and 5 µL of 4× Tag-lite red fluorescent labeled ligand were added to each well. After incubation at room temperature for 1 hour, data was read using EnVision with an HTRF mode. The excitation light intensities at 665nM and 615nM in each well were read respectively, and the ratio was calculated (Ratio=A665nM/B615nM). The IC50 value was calculated by means of GraphPad Prism8 software, where X represents logarithmic value of compound concentration; and Y represents ratio of A665nM/B615nM. [Table 1] Binding activity of compounds to AT2R

The target of series [3] is T2, hERG potassium channel (Homo sapiens, UniProt Q12809).
T2 construct: host or cells: HEK-293
T2 sequence (Q12809 whole entry): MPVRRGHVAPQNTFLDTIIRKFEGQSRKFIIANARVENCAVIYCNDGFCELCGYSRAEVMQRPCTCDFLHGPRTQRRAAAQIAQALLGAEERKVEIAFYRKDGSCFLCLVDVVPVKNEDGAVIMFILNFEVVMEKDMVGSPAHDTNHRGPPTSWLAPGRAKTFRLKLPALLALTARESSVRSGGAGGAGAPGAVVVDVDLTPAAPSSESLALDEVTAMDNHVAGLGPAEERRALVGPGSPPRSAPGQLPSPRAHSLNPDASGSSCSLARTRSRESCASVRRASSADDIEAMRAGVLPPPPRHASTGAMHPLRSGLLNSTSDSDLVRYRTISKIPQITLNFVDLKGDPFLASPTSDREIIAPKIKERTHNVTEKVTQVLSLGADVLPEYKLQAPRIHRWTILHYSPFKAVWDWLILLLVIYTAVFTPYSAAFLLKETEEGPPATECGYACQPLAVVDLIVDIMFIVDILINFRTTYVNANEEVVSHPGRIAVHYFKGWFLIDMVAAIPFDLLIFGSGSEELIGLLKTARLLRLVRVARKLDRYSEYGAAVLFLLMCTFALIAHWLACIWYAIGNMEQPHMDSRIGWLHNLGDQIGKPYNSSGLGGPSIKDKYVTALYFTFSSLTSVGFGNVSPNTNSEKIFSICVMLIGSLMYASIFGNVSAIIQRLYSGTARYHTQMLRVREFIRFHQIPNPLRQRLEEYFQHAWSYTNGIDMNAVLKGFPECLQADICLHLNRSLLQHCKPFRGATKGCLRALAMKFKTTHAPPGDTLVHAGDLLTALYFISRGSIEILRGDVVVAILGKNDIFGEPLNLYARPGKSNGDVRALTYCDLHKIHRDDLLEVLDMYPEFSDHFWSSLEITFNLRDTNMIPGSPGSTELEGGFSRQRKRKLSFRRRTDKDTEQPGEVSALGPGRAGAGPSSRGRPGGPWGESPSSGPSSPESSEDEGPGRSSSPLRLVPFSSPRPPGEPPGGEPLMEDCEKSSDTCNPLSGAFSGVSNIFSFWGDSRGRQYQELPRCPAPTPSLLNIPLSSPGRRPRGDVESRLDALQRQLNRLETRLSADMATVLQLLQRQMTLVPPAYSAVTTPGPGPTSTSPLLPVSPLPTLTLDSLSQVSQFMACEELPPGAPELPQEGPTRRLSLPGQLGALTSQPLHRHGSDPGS
The series is described as follows: Effects on hERG channel currents by manual patch-clamp. The note with it: HEK-293 cell line stably expressing hERG potassium channel, tail current, room temperature; read-out: IC50 (inhibitory effects on hERG). Type of series: cell-based. How it is done: A manual patch-clamp assay was conducted using an HEK-293 cell line stably expressing an hERG potassium channel. hERG potassium channel cells were purchased from Creacell Co., Ltd. (catalog No.: A-0320). Final concentrations of test compounds were freshly prepared on the day of the assay, and then the test compounds were dissolved in an extracellular solution. The extracellular solution (mM) was: […], 3.5 mM KCl, 1 mM MgCl2·6H2O, 2 mM CaCl2·2H2O, 10 mM D-Glucose, 10 mM HEPES, 1.25 mM NaH2PO4·2H2O; pH 7.4 (titrated with NaOH). An intracellular solution (mM) was: 20 mM KCl, 115 mM K-Aspartic, 1 mM MgCl2·6H2O, 5 mM EGTA, 10 mM HEPES, 2 mM Na2-ATP; pH 7.4 (titrated with KOH).
Electrophysiological Assay: After whole-cell patch-clamp formation, the cell membrane potential was clamped at -80 mV. The holding potential was depolarized to -50 mV from -80 mV and maintained for 0.5 seconds (for leak current detection), then stepped to 30 mV for 2.5 seconds, and then rapidly repolarized back to -50 mV for 4 seconds to elicit a tail current of the hERG channel. Data was collected repeatedly every 10 seconds to observe the effects of the drug on hERG tail current (Peak tail currentcompound). A stimulation at -50 mV for 0.5 seconds was used for the leak current detection. Drug administration was initiated after the hERG current recorded in the whole-cell configuration stabilized. After each drug concentration was applied for 5 minutes (or until the current stabilized), the next concentration was tested. One or more concentrations were tested for each test compound. A current detected in each cell in a compound-free extracellular solution (Peak tail currentControl) served as an internal control for the corresponding cell. […]
Data Analysis: The inhibition rate corresponding to each drug concentration was calculated (1-(Peak tail currentcompound/Peak tail currentControl)), and the concentration-response curves were fitted using nonlinear regression in GraphPad Prism software. The IC50 value of each compound was calculated using the following equation: Y=1/(1+10^((LogIC50-X)×HillSlope)). […]

Series [4] can be described thus: Pharmacokinetic test in canines. Type of series: in vivo. Particulars: dog; male Beagle canines, oral gavage, 5 mg/kg, plasma. How it is done:
For the pharmacokinetic test of canines, 3 male Beagle canines (10 kg to 12 kg) were employed and fasted overnight. The canines were orally administered a dose of 5 mg/kg by gavage. Blood was collected before the administration, and at 5 minutes, 15 minutes, 30 minutes, 1 hour, 2 hours, 4 hours, 6 hours, 8 hours, and 24 hours after the administration. The blood samples were centrifuged at 6,000 g and at 2°C to 8°C for 3 minutes, and plasma was collected and stored at -20°C. The plasma at each time point was taken and mixed with 10 volumes of a 50% methanol in acetonitrile solution containing an internal standard. The mixture was vortexed for 5 minutes, and centrifuged at 4,000 rpm and at 4°C for 5 minutes. The supernatant was collected and mixed with 1 volume of water. An appropriate amount of the mixture was taken for LC-MS/MS analysis. The main pharmacokinetic parameters were analyzed by a non-compartmental model using WinNonlin 7.0 software. [Table 3] Results of Pharmacokinetic Test in Canines

In series [1], `CC(C)Cc1cc(C(F)F)c(-c2nn[nH]n2)c(N2CCN(Cc3cccnn3)[C@@H](C)C2)c1` [Compound I-4, (S)-3-((4-(3-(difluoromethyl)-5-isobutyl-2-(2H-tetrazol-5-yl)phenyl)-2-methylpiperazin-1-yl)methyl)pyridazine] yielded an AUC(0-t) of 14100 ng·h/mL. Besides, the maximum concentration (Cmax) in series [1] was 4380 ng/mL. Besides, the IC50 in series [2] is 4.1 nM; in series [3], more than 30000 nM.
In turn, `CC(C)Cc1cc(OC(F)F)c(-c2nn[nH]n2)c(N2CCN(Cc3cccnn3)[C@@H](C)C2)c1` [Compound I-5, (S)-3-((4-(3-(difluoromethoxy)-5-isobutyl-2-(2H-tetrazol-5-yl)phenyl)-2-methylpiperazin-1-yl)methyl)pyridazine] returned an IC50 in series [2] of 2.4 nM. In series [4], this compound registered an exposure AUC(0-t) of 2290 ng·h/mL and a Cmax of 1320 ng/mL. Besides, in series [3], the concentration for half-maximal inhibition (IC50) is 22800 nM.
In series [2], `CC(C)Cc1cc(OC(F)(F)F)c(-c2nn[nH]n2)c(N2CCN(Cc3cccnn3)[C@@H](C)C2)c1` [Compound I-6, (S)-3-((4-(5-isobutyl-2-(2H-tetrazol-5-yl)-3-(trifluoromethoxy)phenyl)-2-methylpiperazin-1-yl)methyl)pyridazine] showed an IC50 of 3.6 nM.
Compound `Cc1nnc(CN2CCN(c3cc(CC(C)C)cc(C(F)F)c3-c3nn[nH]n3)C[C@@H]2C)s1` [Compound I-7, (2S)-4-(3-(difluoromethyl)-2-(3H-1,2,3,4-tetrazol-5-yl)-5-isobutylphenyl)-2-methyl-1-((5-methyl-1,3,4-thiadiazol-2-yl)methyl)piperazine] displayed a concentration for half-maximal inhibition (IC50) in series [2] of 8 nM.
Still for that read-out and setting: the value for `Cc1nnc(CN2CCN(c3cc(CC(C)C)cc(OC(F)F)c3-c3nn[nH]n3)C[C@@H]2C)s1` [Compound I-8, (2S)-4-(3-((difluoromethyl)oxy)-2-(3H-1,2,3,4-tetrazol-5-yl)-5-isobutylphenyl)-2-methyl-1-((5-methyl-1,3,4-thiadiazol-2-yl)methyl) piperazine] was 2.5 nM.
Consider `CC(C)Cc1cc(F)c(-c2nn[nH]n2)c(N2CCN(Cc3cccnn3)[C@@H](C)C2)c1` [Control Compound I, reference compound], for which the AUC(0-t) in series [1] amounted to 10000 ng·h/mL; in series [4], 1300 ng·h/mL. For the same compound, the Cmax in series [1] worked out at 3240 ng/mL; in series [4] it was 850 ng/mL. In addition, the 50% inhibitory concentration (IC50) in series [2] turned out to be 12 nM; in series [3], 2800 nM.
